Data from patent US10143696B2, “Methods and compositions for decreasing gastric emptying” (priority 2015, dated 2018).
Entries after “also recorded” stand apart in the source; their conditions may differ. Read-outs that look alike come from different tables or passages of the source.

How the values were obtained:
Sprague-Dawley rats [1] = experiment: Repeated oral administration: gastric emptying, food intake, body weight; type: in vivo, rat
Method: (§1) Rats were fasted overnight (16-18 hours) with free access to water. The next morning, compound was administered and animals were individually housed in bedding-free cages with pre-weighed food available ad libitum and access to water for 2 hours. The water and food were then removed and the remaining food was re-weighed. Gastric emptying of the ingested meal was assessed 4 hours later. Animals were euthanized by CO2 inhalation followed by thoracotomy. The abdominal cavity was opened, the pylorus and cardia were clamped and the stomach was removed. The excised stomach was weighed and then opened along the greater curvature, rinsed with tap water, lightly dried and re-weighed. The amount of food in the stomach (grams) was estimated based on the difference between the total weight of the stomach plus its contents and the weight of the stomach after the contents were removed. The meal ingested (food intake) was determined by the difference between pre- and post-feeding weight at the end of the 2 hour period. Gastric emptying during the 4 hour experiment is represented as: Gastric emptying=[1−(gastric content/food intake)]×100. Gastric Secretion
Male, Sprague-Dawley rats (weighing between 240-283 g each and 5-6 rats per test group) were orally dosed with 3 mg/kg, 10 mg/kg or 30 mg/kg of Compound A with a 0.5% MC vehicle or with a 0.5% MC vehicle alone once a day for five days and were then fasted overnight. The rats were then dosed again on the sixth day and placed in individual, bedding-free cages and allowed ad libitium access to pre-weighed food and water for two hours. The food and water were then removed and the food was reweighed. Data were analyzed using a one-way ANOVA followed by a Dunnett's Multiple Comparison Test, where *P<0.05 as compared to the appropriate vehicle. Data are represented as the means+S.E.M. % Gastric Emptying in 4 hours=(1−(gastric content/food intake))×100.

cynomolgus monkeys = type: in vivo
Method: Studies in cynomolgous monkeys were conducted by Battelle (Columbus, Ohio). Eleven monkeys, seven males and four females that had been previously received, quarantined, and acclimated and were naïve (females), or had not been used on other studies for a minimum of 6 months (males), were utilized. Prior to use on study, monkeys were acclimated to chair restraint for up to 2 hours. Chair restraint was used to facilitate dose administration and blood collection. Animals were individually housed in stainless steel cages. Monkeys were offered a certified diet twice daily and had access to fresh water ad libitum. The animals also were supplemented with fresh fruits and/or fresh vegetables. Monkeys were fasted overnight prior to dose administration.
Observations for moribundity and mortality were performed on all animals twice daily throughout the duration of the study. Cage-side clinical observations were recorded for all animals prior to dose administration and at the times of blood collection.
As such, a pharmacokinetic and observational study was conducted in cynomologous monkeys (FIG. 16). Plasma concentrations of Compound A were measured following a single oral dose of 10, 50 and 100 mg/kg up to 24 hours post-dosing (FIGS. 16A, B and C).

Sprague-Dawley rats [2] = experiment: Gastric emptying of a test meal in rats; type: in vivo, rat
Method: as §1
Male, Sprague-Dawley rats (weighing between 229-264 g each and 4 rats per test group) were fasted overnight (19 hours). The rats were then orally administered 10 mg/kg, 30 mg/kg or 100 mg/kg of Compound A with a 0.5% MC or Capryol:Solutol:Polyethyleneglycol (CSP) vehicle or with a 0.5% MC or CSP vehicle alone. The rats were then placed in individual, bedding-free cages and allowed ad libitium access to pre-weighed food and water for two hours. The food and water were then removed and the food was reweighed. Gastric emptying was then assessed four hours later by euthanizing the rats and analyzing the stomach and stomach contents. […] Data are represented as the means+the standard error of the means (S.E.M). % Gastric Emptying in 4 hours=(1−(gastric content/food intake))×100. […] Data are represented as the means+S.E.M.
Male, Sprague-Dawley rats (weighing between 235-268 g each and 4-6 rats per test group) were fasted overnight (19 hours). The rats were then subcutaneously administered 10 mg/kg, 30 mg/kg or 100 mg/kg of carbamazepine (Compound B) with a 25% HPBCD vehicle or with a 25% HPBCD vehicle alone. Some test animals were not dosed (i.e., naïve). The rats were then placed in individual, bedding-free cages and allowed ad libitium access to pre-weighed food and water for two hours. The food and water were then removed and the food was reweighed. […] Data are represented as the means+S.E.M. % Gastric Emptying in 4 hours=(1−(gastric content/food intake))×100.
Male, Sprague-Dawley rats (weighing between 238-274 g each and 6 rats per test group) were fasted overnight (19 hours). The rats were then orally administered 30 mg/kg, 100 mg/kg or 300 mg/kg of carbamazepine (Compound B) with a 0.5% MC vehicle or with a 0.5% MC vehicle alone. The rats were then placed in individual, bedding-free cages and allowed ad libitium access to pre-weighed food and water for two hours. The food and water were then removed and the food was reweighed. […] Data are represented as the means+S.E.M. % Gastric Emptying in 4 hours=(1−(gastric content/food intake))×100.
Male, Sprague-Dawley rats (weighing between 235-276 g each and 4-6 rats per test group) were fasted overnight (19 hours).

[3] = 30 mg/kg p.o. once a day, over 5 days
[4] = p.o. 3, 10, 30 mg/kg once a day for 6 days, 0.5% MC
[5] = individual monkey presenting the highest plasma levels
[6] = monkey, p.o. 100 mg/kg, animals affected/animals dosed, 100 mg/kg
[7] = naïve rats, p.o. 100 mg/kg, 0.5% MC (Example 13)
[8] = p.o. 10, 30, 100 mg/kg, 0.5% MC or CSP vehicle (Example 1)

## C[C@H](Nc1cc(C(N)=O)nc(-c2ccc(Oc3ccc(OC(F)(F)F)cc3)cc2)n1)C(N)=O [Compound A]
Sprague-Dawley rats [1]; [3]
  body weight lost as a percentage of total body weight: 2.6%
  mean body weight loss: 6.3 g
Sprague-Dawley rats [1]; measured on day 5, p.o. 3, 10, 30 mg/kg once a day
  body weight: decreased for all Compound A dosage levels
Sprague-Dawley rats [1]; [4]
  % Gastric Emptying in 4 hours: inhibited the percentage of gastric emptying
  food intake: decrease in food intake
Cynomolgus monkeys; [5]
  food intake after 24 hrs post-dosing: reduced food intake for at least two additional days post dosing
  food intake and feces production up to 24 hrs post-dosing: zero food intake and zero feces production
Cynomolgus monkeys; monkey, p.o. 10 mg/kg
  food consumption or feces production: no treatment related-effect was discernable
Cynomolgus monkeys; monkey, p.o. 10 mg/kg, animals affected/animals dosed, 10 mg/kg
  Clinical Observations (frequency): Diarrhea: 2 out of the 3 and (2/3)
Cynomolgus monkeys; monkey, p.o. 50 mg/kg, animals affected/animals dosed, 50 mg/kg
  Clinical Observations (frequency): Distended/Bloated Abdomen: 2 out of 4 and Abdomen (2/4)
Cynomolgus monkeys; [6]
  Clinical Observations (frequency): Distended/Bloated Abdomen: 2 out of 4 and Abdomen (2/4)
  Clinical Observations (frequency): Low Food Consumption: 2 out of the 4 and Consumption (2/4)
Sprague-Dawley rats [2]; Compound A 3 mg/kg s.c. alone, 25% HPBCD (Examples 11, 12), 3 mg/kg
  % Gastric Emptying in 4 hours: inhibits the percent of gastric emptying independently
Sprague-Dawley rats [2]; administered subcutaneously (Example 9)
  gastric emptying: decrease in gastric emptying
Sprague-Dawley rats [2]; all dosages tested
  gastric emptying inhibition potency of Compound A with a CSP vehicle compared to Compound D in 25% HPBCD: maintains a greater gastric emptying inhibition potency as compared to Compound D
Sprague-Dawley rats [2]; comparison at equal or similar dosages, routes and vehicles
  gastric emptying inhibition potency compared between compounds: greater gastric emptying inhibition potency than Compound B; also recorded: greater gastric emptying inhibition potency when compared to Compound B; also recorded: greater gastric emptying inhibition potency at lower dosages; also recorded: highest in vivo potency
Sprague-Dawley rats [2]; lowest dose tested orally, 10 mg/kg
  gastric emptying: ~0%
Sprague-Dawley rats [2]; [7]
  % Gastric Emptying in 4 hours: statistically significant decrease in gastric emptying
  stomach weight: increase in stomach weight
Sprague-Dawley rats [2]; [8]
  % Gastric Emptying in 4 hours: increased inhibition of gastric emptying
  stomach weight: increased stomach weight
Sprague-Dawley rats [2]; p.o. 10-100 mg/kg (Example 1)
  gastric emptying inhibition and stomach weight increase, CSP vehicle compared to 0.5% MC vehicle: greater inhibiting effect on gastric emptying and stomach weight increase was observed with a CSP vehicle
Sprague-Dawley rats [2]; rat, in vivo
  food intake: decreased food intake
  stomach weight: increased stomach weight
  stomach weight and food intake: comparable to that of Compound A alone
Sprague-Dawley rats [2]; s.c. vs p.o.
  increase in potency on gastric emptying, subcutaneous as compared to oral administration: 3-10 fold
Sprague-Dawley rats [2]; vagotomized and naïve rats, p.o. 100 mg/kg (Example 13)
  food intake: Food intake is inhibited
Sprague-Dawley rats [2]; vagotomized rats, p.o. 100 mg/kg, 0.5% MC, vs vagotomy alone (Example 13)
  stomach weight: not statically significantly different from vagotomy alone
Sprague-Dawley rats [2]; vagotomized rats, p.o. 100 mg/kg, 0.5% MC, vs vagotomy alone (Example 13), 100 mg/kg
  % Gastric Emptying in 4 hours: numerically additive effect on the inhibition of gastric emptying but not a statistically significant effect; also recorded: not statically significantly different from vagotomy alone
